Measured values taken from a compilation of properties of binary mixtures (doi:10.1590/0104-6632.20180352s20160280).

Assay: xn = mol fraction of the nth substance listed
Conditions: 100 kPa

O=C[O-].OCC[NH2+]CCO + O
viscosity [mPa·s]
Conditions	x1 = 0.0292	x1 = 0.075	x1 = 0.1516	x1 = 0.2184	x1 = 0.3185	x1 = 0.5155	x1 = 0.5932	x1 = 0.7378	x1 = 0.7987	x1 = 1
293.15 K	1.69	–	8.2	16.1	–	112	133	243	329	–
303.15 K	–	2.5	5.9	11	23.2	65	76	132	–	242
313.15 K	1.1	–	4.48	8	15.8	40.7	46.6	77	99	135
323.15 K	0.93	1.64	3.51	6	11.3	27.1	30.6	49	61	82
333.15 K	0.8	1.38	2.82	4.68	–	19	21.2	32.8	–	53
343.15 K	0.7	1.18	2.33	3.75	6.5	13.9	–	23	27.8	–

O + O=C[O-].OCC[NH2+]CCO
x2 = 0
Conditions	viscosity [mPa·s]
293.15 K	1
303.15 K	0.82
333.15 K	0.5
343.15 K	0.451
